From patent US11613546B2, “Substituted pyridotriazine compounds and uses thereof” (Gilead Sciences, Inc., priority 2021, dated 2023) come the findings set out here.

Assay type in all cases: cell-based
The subject of one data set is MT-4 cells. The data set can be described thus: Cytotoxicity assay in MT-4 cells. Summed up:
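Uninfected MT-4 cells were incubated with 1:3 serially diluted compound in RPMI/10% FBS for 5 days at 37° C. Viability was read by CellTiter-Glo luminescence, with 10 μM puromycin as the baseline cytotoxicity control. Values are the concentration giving a 50% decrease in luminescence, from sigmoidal dose-response fits.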

For a further data set, the system named is pLai RLuc reporter virus. The data set can be described thus: HIV MT-4 serum shift antiviral reporter assay. In a few lines:
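MT-4 cells pre-infected with pLai RLuc virus for 2 h at 37 °C, then incubated 72 h at 37 °C with compound in medium (RPMI, 10% FBS) with or without 50% human serum; Renilla luminescence read. EC50 from sigmoidal fit; serum shift = EC50(HS/CCM)/EC50(CCM).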

For a further data set, the system named is HIV-1 (IIIB). The data set can be described thus: Antiviral assay in MT-4 cells. As to conditions: HIV-1 IIIB infected MT-4 cells, 5 days, Cell Titer Glo, read-out: MT4 EC50. Summed up:
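MT-4 cells infected with a 1:250 dilution of HIV-1 IIIB stock were incubated with serially diluted (1:3) compound for 5 days at 37 °C. Viability read by Cell Titer Glo luminescence; EC50 is the concentration giving 50% decrease in signal, from sigmoidal dose-response fits.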

The mark [1] stands for this setting: uninfected MT-4 cells, 5 days, Cell Titer Glo, read-out: CC50.
Where [2] appears, read: HS/CCM: 50% human serum, 72 h, Renilla Glo, read-out: RLUC 50% HS.
Setting [3] is: cell culture media (RPMI, 10% FBS), 72 h, Renilla Glo, read-out: RLUC CCM.
Setting [4] is: read-out: RLUC 50% HS, HS/CCM: 50% human serum, 72 h, Renilla Glo.
Setting [5] is: read-out: RLUC CCM, cell culture media (RPMI, 10% FBS), 72 h, Renilla Glo.
[6] abbreviates: Human immunodeficiency virus 1, IIIB, MT4, 120 h.

Structures are written as SMILES. Where two headings read alike, the source gives them in different places.

Take `O=C(NCc1c(F)cc(F)cc1F)c1cn2c(c(O)c1=O)C(=O)N1CCCCN2C1` [Example C108, (1R)-8-hydroxy-7,9-dioxo-N-(2,4,6-trifluorobenzyl)-2,3,4,5,7,9-hexahydro-1,6-methanopyrido[1,2-b][1,2,5]triazonine-10-carboxamide]: the CC50 in the data set with MT-4 cells (setting [1]) came out at 22900 nM. For the same molecule, the EC50 is 208 nM in the data set on pLai RLuc reporter virus (setting [2]), 0.98 nM in the data set with pLai RLuc reporter virus (setting [3]) and 3.3 nM in the data set on HIV-1 (IIIB).

In the case of `C[C@H]1CC[C@H](C)N2CN1C(=O)c1c(O)c(=O)c(C(=O)NCc3c(F)cc(F)cc3F)cn12` [Example C28, (1S,2S,5S)-8-hydroxy-2,5-dimethyl-7,9-dioxo-N-(2,4,6-trifluorobenzyl)-2,3,4,5,7,9-hexahydro-1,6-methanopyrido[1,2-b][1,2,5]triazonine-10-carboxamide], in the data set on MT-4 cells (setting [1]), the CC50 was 6870 nM. For the same molecule, the EC50 is 319 nM with pLai RLuc reporter virus (setting [4]), 0.33 nM with pLai RLuc reporter virus (setting [5]) and 1.4 nM with HIV-1 (IIIB).

For the molecule `C[C@@H]1C/C=C\[C@H](C)N2CN1n1cc(C(=O)NCc3c(F)cc(F)cc3F)c(=O)c(O)c1C2=O` [Example C7, (1S,2R,6S,Z)-9-hydroxy-2,6-dimethyl-8,10-dioxo-N-(2,4,6-trifluorobenzyl)-3,6,8,10-tetrahydro-2H-1,7-methanopyrido[1,2-b][1,2,5]triazecine-11-carboxamide], in the data set with MT-4 cells (setting [1]), the CC50 turned out to be 9190 nM. For the same molecule, the EC50 in the data set with pLai RLuc reporter virus (setting [2]) came out at 172 nM; in the data set on pLai RLuc reporter virus (setting [3]), 0.35 nM; in the data set with HIV-1 (IIIB), 2.1 nM.

For `C[C@H]1/C=C\C[C@H](C)N2CN1C(=O)c1c(O)c(=O)c(C(=O)NCc3c(F)cc(F)cc3F)cn12` [Example C19, (1R,2S,6S,Z)-9-hydroxy-2,6-dimethyl-8,10-dioxo-N-(2,4,6-trifluorobenzyl)-3,6,8,10-tetrahydro-2H-1,7-methanopyrido[1,2-b][1,2,5]triazecine-11-carboxamide], the CC50 in the data set with MT-4 cells (setting [1]) worked out at 10200 nM. Also, the EC50 was 60.3 nM in the data set on pLai RLuc reporter virus (setting [2]), 0.41 nM in the data set with pLai RLuc reporter virus (setting [3]) and 1.1 nM in the data set with HIV-1 (IIIB).

As for `C[C@H]1C/C=C\CN2CN1n1cc(C(=O)NCc3ccc(F)cc3F)c(=O)c(O)c1C2=O` [Example C43, (1R,2S,Z)—N-(2,4-difluorobenzyl)-9-hydroxy-2-methyl-8,10-dioxo-3,6,8,10-tetrahydro-2H-1,7-methanopyrido[1,2-b][1,2,5]triazecine-11-carboxamide], in the data set with MT-4 cells (setting [1]), the CC50 worked out at 6110 nM. Moreover, the figures for the EC50 in the data set on pLai RLuc reporter virus (setting [4]), with pLai RLuc reporter virus (setting [5]) and in the data set on HIV-1 (IIIB) were 544 nM, 1.68 nM and 5.3 nM, respectively.

Consider `C[C@H]1CCCCN2CN1n1cc(C(=O)NCc3ccc(F)cc3F)c(=O)c(O)c1C2=O` [Example C40, (1S,2S)—N-(2,4-difluorobenzyl)-9-hydroxy-2-methyl-8,10-dioxo-3,4,5,6,8,10-hexahydro-2H-1,7-methanopyrido[1,2-b][1,2,5]triazecine-11-carboxamide], for which, in the data set on MT-4 cells (setting [1]), the CC50 is 16000 nM. The EC50 was 139 nM in the data set on pLai RLuc reporter virus (setting [2]), 1.3 nM with pLai RLuc reporter virus (setting [3]) and 2.1 nM with HIV-1 (IIIB).

Regarding `C[C@@H]1CCC[C@H](C)N2CN1n1cc(C(=O)NCc3c(F)cc(F)cc3F)c(=O)c(O)c1C2=O` [Example C14, (1R,2S,6R)-9-hydroxy-2,6-dimethyl-8,10-dioxo-N-(2,4,6-trifluorobenzyl)-3,4,5,6,8,10-hexahydro-2H-1,7-methanopyrido[1,2-b][1,2,5]triazecine-11-carboxamide], the CC50 in the data set on MT-4 cells (setting [1]) is 8060 nM. For the same molecule, the EC50 with pLai RLuc reporter virus (setting [4]) was 31.1 nM; in the data set on pLai RLuc reporter virus (setting [5]), 0.71 nM; with HIV-1 (IIIB), 2 nM.

For the molecule `C[C@H]1C=C[C@]2(CCOC2)N2CN1C(=O)c1c(O)c(=O)c(C(=O)NCc3c(F)cc(F)cc3F)cn12` [Example C84, (1′S,3S,5′S)-8′-hydroxy-5′-methyl-7′,9′-dioxo-N-(2,4,6-trifluorobenzyl)-4,5,7′,9′-tetrahydro-2H,5′H-spiro[furan-3,2′-[1,6]methanopyrido[1,2-b][1,2,5]triazonine]-10′-carboxamide], the CC50 with MT-4 cells (setting [1]) turned out to be 20500 nM. Further, the results for the EC50 with pLai RLuc reporter virus (setting [2]), with pLai RLuc reporter virus (setting [3]) and in the data set on HIV-1 (IIIB) were 24.9 nM, 0.26 nM and 0.6 nM, respectively.

For `O=C(NCc1c(F)cc(F)cc1F)c1cn2c(c(O)c1=O)C(=O)N1Cc3cc(F)ccc3CN2C1` [Example C1, (6R)-10-fluoro-1-hydroxy-2,14-dioxo-N-(2,4,6-trifluorobenzyl)-2,7,12,14-tetrahydro-6,13-methanobenzo[g]pyrido[1,2-b][1,2,5]triazonine-3-carboxamide], the CC50 in the data set with MT-4 cells (setting [1]) turned out to be 10100 nM. Besides, the EC50 came out at 30.2 nM in the data set on pLai RLuc reporter virus (setting [2]), 3.18 nM in the data set on pLai RLuc reporter virus (setting [3]) and 20 nM in the data set with HIV-1 (IIIB).

Take `C[C@@H]1C[C@@H](F)[C@@H](F)CN2CN1n1cc(C(=O)NCc3ccc(F)cc3F)c(=O)c(O)c1C2=O` (single isomer, unassigned) [Example C38]: in the data set on MT-4 cells (setting [1]), the CC50 came to 13600 nM. Further, the results for the EC50 in the data set with pLai RLuc reporter virus (setting [2]), in the data set with pLai RLuc reporter virus (setting [3]) and in the data set with HIV-1 (IIIB) were 17 nM, 1.1 nM and 1.5 nM, respectively.

`C[C@@H]1c2nc[nH]c2[C@H](C)N2CN1n1cc(C(=O)NCc3ccc(F)cc3F)c(=O)c(O)c1C2=O` [Example C60, (4R,5S,13S)—N-(2,4-difluorobenzyl)-10-hydroxy-4,13-dimethyl-9,11-dioxo-4,9,11,13-tetrahydro-1H-5,12-methanoimidazo[4,5-g]pyrido[1,2-b][1,2,5]triazonine-8-carboxamide]: the CC50 with MT-4 cells (setting [1]) was 50000 nM. The EC50 with pLai RLuc reporter virus (Human immunodeficiency virus 1, 72 h, read-out: RLUC 50% HS (nM), HS/CCM: 50% human serum, 72 h, Renilla Glo) came out at 104 nM; with pLai RLuc reporter virus (Human immunodeficiency virus 1, 72 h, read-out: RLUC CCM (nM), cell culture media (RPMI, 10% FBS), 72 h, Renilla Glo) it was 42.6 nM; with HIV-1 (IIIB) (setting [6]) it was 95.7 nM.

Turning to `C[C@@H]1CC(F)(F)[C@H](C)N2CN1n1cc(C(=O)NCc3c(F)cc(F)cc3F)c(=O)c(O)c1C2=O` [Example C35, (1S,2R,5S)-4,4-difluoro-8-hydroxy-2,5-dimethyl-7,9-dioxo-N-(2,4,6-trifluorobenzyl)-2,3,4,5,7,9-hexahydro-1,6-methanopyrido[1,2-b][1,2,5]triazonine-10-carboxamide], in the data set on MT-4 cells (setting [1]), the CC50 stood at 29900 nM. In addition, the EC50 was found to be 188 nM in the data set on pLai RLuc reporter virus (setting [2]), 1.3 nM in the data set with pLai RLuc reporter virus (setting [3]) and 1.6 nM in the data set on HIV-1 (IIIB).

`C[C@@H]1CC[C@H](CF)N2CN1n1cc(C(=O)NCc3c(F)cc(F)cc3F)c(=O)c(O)c1C2=O` [Example C51, (1S,2R,5R)-5-(fluoromethyl)-8-hydroxy-2-methyl-7,9-dioxo-N-(2,4,6-trifluorobenzyl)-2,3,4,5,7,9-hexahydro-1,6-methanopyrido[1,2-b][1,2,5]triazonine-10-carboxamide] registered a CC50 with MT-4 cells of 9810 nM. For the same molecule, the EC50 with pLai RLuc reporter virus (setting [2]) was determined as 408 nM; in the data set on pLai RLuc reporter virus (setting [3]), 2.3 nM; with HIV-1 (IIIB), 1.3 nM.

Turning to `C[C@@H]1CCC[C@H](C)N2CN1n1cc(C(=O)NCc3c(F)cc(F)cc3F)c(=O)c(O)c1C2=O` [Example C8, (1S,2R,6S)-9-hydroxy-2,6-dimethyl-8,10-dioxo-N-(2,4,6-trifluorobenzyl)-3,4,5,6,8,10-hexahydro-2H-1,7-methanopyrido[1,2-b][1,2,5]triazecine-11-carboxamide], in the data set on MT-4 cells (setting [1]), the CC50 turned out to be 4720 nM. For the same molecule, the EC50 with pLai RLuc reporter virus (setting [4]) was 16.4 nM; in the data set on pLai RLuc reporter virus (setting [5]), 0.55 nM; in the data set on HIV-1 (IIIB) (setting [6]), 1.8 nM.

Consider `O=C(NCc1c(F)cc(F)cc1F)c1cn2c(c(O)c1=O)C(=O)N1Cc3cc(F)ccc3CN2C1` [Example C3, (6S)-10-fluoro-1-hydroxy-2,14-dioxo-N-(2,4,6-trifluorobenzyl)-2,7,12,14-tetrahydro-6,13-methanobenzo[g]pyrido[1,2-b][1,2,5]triazonine-3-carboxamide], for which the CC50 with MT-4 cells (setting [1]) was 13400 nM. Moreover, the EC50 in the data set with pLai RLuc reporter virus (setting [2]) stood at 2.72 nM; in the data set on pLai RLuc reporter virus (setting [3]) it was 0.39 nM; in the data set with HIV-1 (IIIB), 1.7 nM.

On to `C[C@H]1C=C[C@H](CF)N2CN1C(=O)c1c(O)c(=O)c(C(=O)NCc3c(F)cc(F)cc3F)cn12` [Example C80, (1R,2R,5S)-2-(fluoromethyl)-8-hydroxy-5-methyl-7,9-dioxo-N-(2,4,6-trifluorobenzyl)-2,5,7,9-tetrahydro-1,6-methanopyrido[1,2-b][1,2,5]triazonine-10-carboxamide], for which, in the data set with MT-4 cells, half-maximal cytotoxicity (CC50) was put at 25400 nM. The EC50 with pLai RLuc reporter virus (setting [2]) came out at 810 nM; with pLai RLuc reporter virus (setting [3]), 1.24 nM; in the data set on HIV-1 (IIIB), 8.1 nM.

For the molecule `C[C@@H]1C/C=C\CN2CN1n1cc(C(=O)NCc3ccc(F)cc3F)c(=O)c(O)c1C2=O` [Example C11, (1S,2R,Z)—N-(2,4-difluorobenzyl)-9-hydroxy-2-methyl-8,10-dioxo-3,6,8,10-tetrahydro-2H-1,7-methanopyrido[1,2-b][1,2,5]triazecine-11-carboxamide], the CC50 in the data set with MT-4 cells (setting [1]) came to 9930 nM. Moreover, the results for the EC50 in the data set on pLai RLuc reporter virus (setting [2]), in the data set on pLai RLuc reporter virus (setting [3]) and in the data set with HIV-1 (IIIB) were 7.32 nM, 0.27 nM and 1.1 nM, respectively.

In the case of `C[C@H]1C=CC(C)(C)N2CN1n1cc(C(=O)NCc3ccc(F)cc3F)c(=O)c(O)c1C2=O` [Example C92, (1S,2S)—N-(2,4-difluorobenzyl)-8-hydroxy-2,5,5-trimethyl-7,9-dioxo-2,5,7,9-tetrahydro-1,6-methanopyrido[1,2-b][1,2,5]triazonine-10-carboxamide], the CC50 with MT-4 cells (setting [1]) worked out at 17500 nM. Also, the EC50 with pLai RLuc reporter virus (setting [2]) was found to be 246 nM; in the data set with pLai RLuc reporter virus (setting [3]), 0.67 nM; in the data set with HIV-1 (IIIB), 1.5 nM.
